Our source for the IC50 values is patent publication US20080021026A1, “BENZOTHIOPHENE INHIBITORS OF RHO KINASE” (priority 2006, published 2008).

SMILES strings stand for the structures. Like-named read-outs stand apart in the source and are kept apart here.

The target of assay [1] is T1, recombinant N-terminal GST-tagged human Rho kinase 2 (ROCK2, amino acids 1-552) (Homo sapiens, UniProt O75116).
T1 construct: ROCK2, amino acids 1-552; purchased Invitrogen Inc. PV3759
Briefly: In vitro Rho kinase assay (luciferase-based ATP consumption), ROCK2. The format is biochemical. The method in brief: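 GST-ROCK2 (aa 1-552, 0.82 μg/ml) with 100 μg/ml S6 peptide and 3 µM ATP in Tris pH 7.5 buffer with MgCl2/CaCl2/EGTA/BSA, compound added just after reaction start, 2 h at 30 °C. Remaining ATP read by luciferase luminescence. Efficacy expressed as percentage of H-1152P positive control.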

Assay [2] has as its target T2, recombinant N-terminal GST-tagged human Rho kinase 1 (ROCK1, amino acids 1-535) (Homo sapiens, UniProt Q13464).
T2 construct: ROCK1, amino acids 1-535; purchased Invitrogen Inc. PV-3691
Briefly: In vitro Rho kinase assay (luciferase-based ATP consumption), ROCK1. The format is biochemical. The method in brief:
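GST-ROCK1 (aa 1-535) at 0.82 μg/ml with 100 μg/ml S6 peptide and 3 µM ATP in Tris pH 7.5 buffer with MgCl2, CaCl2, EGTA, BSA; compound added after reaction start, 2 h at 30 °C. Remaining ATP read by luciferase luminescence; efficacy as percent of H-1152P positive control.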

The mark [3] stands for this setting: recombinant GST-tagged human ROCK2, luciferase-based ATP consumption, read-out: ROCK2 IC50.
Where [4] appears, read: recombinant GST-tagged human ROCK1, luciferase-based ATP consumption, read-out: ROCK1 IC50.

T1 sequence (O75116 1-552): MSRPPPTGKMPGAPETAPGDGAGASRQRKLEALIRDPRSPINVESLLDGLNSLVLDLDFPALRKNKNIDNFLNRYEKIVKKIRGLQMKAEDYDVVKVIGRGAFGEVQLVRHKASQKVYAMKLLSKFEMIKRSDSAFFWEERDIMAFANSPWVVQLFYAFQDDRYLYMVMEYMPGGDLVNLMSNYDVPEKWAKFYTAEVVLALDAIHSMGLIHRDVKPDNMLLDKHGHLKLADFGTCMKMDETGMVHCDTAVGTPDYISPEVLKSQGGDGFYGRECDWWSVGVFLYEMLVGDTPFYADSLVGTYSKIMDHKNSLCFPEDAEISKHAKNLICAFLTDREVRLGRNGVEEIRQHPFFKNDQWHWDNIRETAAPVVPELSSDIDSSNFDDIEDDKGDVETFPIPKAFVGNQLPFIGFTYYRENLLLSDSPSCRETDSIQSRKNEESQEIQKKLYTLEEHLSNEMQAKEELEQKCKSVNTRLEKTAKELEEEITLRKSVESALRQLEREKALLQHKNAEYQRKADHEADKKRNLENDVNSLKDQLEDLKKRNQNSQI
T2 sequence (Q13464 1-535): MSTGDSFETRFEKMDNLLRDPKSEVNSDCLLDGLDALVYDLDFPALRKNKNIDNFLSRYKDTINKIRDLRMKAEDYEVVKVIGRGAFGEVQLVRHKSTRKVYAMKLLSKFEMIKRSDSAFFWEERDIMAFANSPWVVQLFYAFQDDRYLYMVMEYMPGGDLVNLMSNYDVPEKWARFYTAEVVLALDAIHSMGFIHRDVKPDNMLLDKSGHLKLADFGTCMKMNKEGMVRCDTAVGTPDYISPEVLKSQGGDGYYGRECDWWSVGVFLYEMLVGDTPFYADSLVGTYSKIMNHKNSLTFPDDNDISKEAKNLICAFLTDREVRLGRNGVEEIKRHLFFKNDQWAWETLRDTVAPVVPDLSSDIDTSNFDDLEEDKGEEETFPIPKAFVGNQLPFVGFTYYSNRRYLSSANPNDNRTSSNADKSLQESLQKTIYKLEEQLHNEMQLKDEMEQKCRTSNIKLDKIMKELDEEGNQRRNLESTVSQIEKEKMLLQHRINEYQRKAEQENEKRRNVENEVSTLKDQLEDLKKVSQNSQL

As a reminder, the IC50 is the concentration that inhibits the measured activity by half. As to `CCC(C(=O)NCc1ccc2sc(-c3ccnc(N)n3)c(C)c2c1)c1ccccc1` (stereo not shown) [Example 169, CCC(C(═O)NCc1ccc2sc(c(C)c2c1)-c3ccnc(N)n3)c4ccccc4], the IC50 in assay [1] (setting [3]) and in assay [2] (setting [4]) was less than 5 µM throughout.
On to `CNc1nccc(Nc2ccc3sc(-c4ccnc(N)n4)c(C)c3c2)n1` [Example 76, N^4-(2-(2-Aminopyrimidin-4-yl)-3-methylbenzo[b]thiophen-5-yl)-N^2-methyl pyrimidine-2,4-diamine], for which the half-maximal inhibitory concentration (IC50) in assay [1] (setting [3]) and in assay [2] (setting [4]) was less than 5 µM in each case.
In the case of `COc1ccc(O)c(C(=O)NCc2ccc3sc(-c4ccnc(N)n4)c(C)c3c2)c1` [Example 182, COc1ccc(O)c(c1)C(═O)NCc2ccc3sc(c(C)c3c2)-c4ccnc(N)n4], the half-maximal inhibitory concentration (IC50) is less than 5 µM in assay [1] (setting [3]) and more than 5 µM in assay [2] (setting [4]).
As for `Cc1c(-c2ccnc(N)n2)sc2ccc(CNC(=O)c3ccccc3-c3ccccc3)cc12` [Example 261, Cc1c(sc2ccc(CNC(═O)c3ccccc3-c4ccccc4)cc12)-c5ccnc(N)n5], the IC50 in assay [1] (setting [3]) is less than 5 µM; in assay [2] (setting [4]) it was more than 5 µM.
Taken in the same sequence, the figures for `Cc1c(-c2ccnc(N)n2)sc2ccc(CNC(=O)C=Cc3ccc(Cl)cc3)cc12` [Example 224, Cc1c(sc2ccc(CNC(═O)C═Cc3ccc(Cl)cc3)cc12)-c4ccnc(N)n4] were less than 5 µM and more than 5 µM.
The corresponding values for `COc1cc(C(=O)NCc2ccc3sc(-c4ccnc(N)n4)c(C)c3c2)cc(OC)c1O` [Example 260, COc1cc(cc(OC)c1O)C(═O)NCc2ccc3sc(c(C)c3c2)-c4ccnc(N)n4] are less than 5 µM and more than 5 µM.
Taken in the same sequence, the figures for `Cc1c(-c2ccnc(N)n2)sc2ccc(CNC(=O)C3CCc4ccccc4C3)cc12` (stereo not shown) [Example 199, Cc1c(sc2ccc(CNC(═O)C3CCc4ccccc4C3)cc12)-c5ccnc(N)n5] were less than 5 µM and more than 5 µM.
Consider `COc1ccc(Br)c(C(=O)NCc2ccc3sc(-c4ccnc(N)n4)c(C)c3c2)c1` [Example 310, COc1ccc(Br)c(c1)C(═O)NCc2ccc3sc(c(C)c3c2)-c4ccnc(N)n4], for which the IC50 in assay [1] (setting [3]) was less than 5 µM; in assay [2] (setting [4]), more than 5 µM.
The corresponding values for `Cc1c(-c2ccnc(N)n2)sc2ccc(CNC(=O)c3ccc(OCc4ccccc4)cc3)cc12` [Example 302, Cc1c(sc2ccc(CNC(═O)c3ccc(OCc4ccccc4)cc3)cc12)-c5ccnc(N)n5] are more than 5 µM and more than 5 µM.
Taken in the same sequence, the figures for `Cc1ccc(F)cc1C(=O)NCc1ccc2sc(-c3ccnc(N)n3)c(C)c2c1` [Example 146, Cc1ccc(F)cc1C(═O)NCc2ccc3sc(c(C)c3c2)-c4ccnc(N)n4] were less than 5 µM and more than 5 µM.
The corresponding values for `Nc1nccc(-c2sc3ccccc3c2Br)n1` [Example 15, 4-(3-Bromobenzo[b]thiophen-2-yl)pyrimidin-2-amine] are less than 5 µM and less than 5 µM.
Consider `Cc1c(-c2ccnc(N)n2)sc2ccc(CNC(=O)c3ccccc3C(=O)c3ccc(O)cc3)cc12` [Example 316, Cc1c(sc2ccc(CNC(═O)c3ccccc3C(═O)c4ccc(O)cc4)cc12)-c5ccnc(N)n5], for which the IC50 in assay [1] (setting [3]) and in assay [2] (setting [4]) was less than 5 µM in each case.
Turning to `Cc1c(-c2ccnc(N)n2)sc2ccc(CNC(=O)c3ccc(F)cc3F)cc12` [Example 155, Cc1c(sc2ccc(CNC(═O)c3ccc(F)cc3F)cc12)-c4ccnc(N)n4], the 50% inhibitory concentration (IC50) in assay [1] (setting [3]) is less than 5 µM; in assay [2] (setting [4]), more than 5 µM.
As for `COc1ccc(NC(=O)c2cccc(Cc3ccc4sc(-c5ccnc(N)n5)c(C)c4c3)c2)cc1` [Example 46, 3-((2-(2-Aminopyrimidin-4-yl)-3-methylbenzo[b]thiophen-5-yl)methyl)-N-(4-methoxyphenyl)benzamide], the 50% inhibitory concentration (IC50) in assay [1] (setting [3]) and in assay [2] (setting [4]) was less than 5 µM in each case.
In the case of `Cc1c(-c2ccnc(N)n2)sc2ccc(Nc3cccc(OC(F)(F)F)c3)cc12` [Example 54, 4-(3-Methyl-5-(3-(trifluoromethoxy)phenylamino)benzo[b]thiophen-2-yl)pyrimidin-2-amine], the IC50 in assay [1] (setting [3]) and in assay [2] (setting [4]) was more than 5 µM each time.
For the compound `COc1cccc(C#Cc2ccc3sc(-c4ccnc(N)n4)c(C)c3c2)c1` [Example 89, 4-(5-((3-Methoxyphenyl)ethynyl)-3-methylbenzo[b]thiophen-2-yl)pyrimidin-2-amine], the IC50 in assay [1] (setting [3]) and in assay [2] (setting [4]) was more than 5 µM each time.
For `CC(=O)Oc1ccc(C(=O)NCc2ccc3sc(-c4ccnc(N)n4)c(C)c3c2)cc1` [Example 208, CC(═O)Oc1ccc(cc1)C(═O)NCc2ccc3sc(c(C)c3c2)-c4ccnc(N)n4], the 50% inhibitory concentration (IC50) in assay [1] (setting [3]) and in assay [2] (setting [4]) was less than 5 µM throughout.
For `Cc1c(-c2ccnc(N)n2)sc2ccc(Nc3cncc(C(=O)O)c3)cc12` [Example 71, 5-(2-(2-Aminopyrimidin-4-yl)-3-methylbenzo[b]thiophen-5-ylamino)nicotinic acid], the half-inhibitory concentration (IC50) in assay [1] (setting [3]) and in assay [2] (setting [4]) was less than 5 µM each time.
Turning to `Cc1c(-c2ccnc(N)n2)sc2ccc(CNC(=O)c3cc(Cl)ccc3Cl)cc12` [Example 247, Cc1c(sc2ccc(CNC(═O)c3cc(Cl)ccc3Cl)cc12)-c4ccnc(N)n4], the half-inhibitory concentration (IC50) was less than 5 µM in assay [1] (ROCK2 IC50, recombinant GST-tagged human ROCK2, luciferase-based ATP consumption) and less than 5 µM in assay [2] (ROCK1 IC50, recombinant GST-tagged human ROCK1, luciferase-based ATP consumption).
Turning to `Cc1c(-c2ccnc(N)n2)sc2ccc(CNC(=O)C(C)c3ccc(CC(C)C)cc3)cc12` (stereo not shown) [Example 274, CC(C)Cc1ccc(cc1)C(C)C(═O)NCc2ccc3sc(c(C)c3c2)-c4ccnc(N)n4], the IC50 in assay [1] (setting [3]) and in assay [2] (setting [4]) was more than 5 µM throughout.
With `COc1cc(NC(=O)c2sc3nc(-c4ccncc4)ccc3c2N)cc(OC)c1OC` [Example 94], the IC50 in assay [1] (setting [3]) and in assay [2] (setting [4]) was less than 5 µM throughout.
Regarding `CCc1ccc(C(=O)NCc2ccc3sc(-c4ccnc(N)n4)c(C)c3c2)cc1` [Example 137, CCc1ccc(cc1)C(═O)NCc2ccc3sc(c(C)c3c2)-c4ccnc(N)n4], the concentration for half-maximal inhibition (IC50) in assay [1] (setting [3]) and in assay [2] (setting [4]) was more than 5 µM throughout.
As for `Cc1c(-c2ccnc(N)n2)sc2ccc(CNC(=O)c3ccc(C(C)(C)C)cc3)cc12` [Example 204, Cc1c(sc2ccc(CNC(═O)c3ccc(cc3)C(C)(C)C)cc12)-c4ccnc(N)n4], the IC50 in assay [1] (setting [3]) and in assay [2] (setting [4]) was less than 5 µM in each case.
As to `Cc1c(-c2ccnc(N)n2)oc2ccccc12` [Example 3, 4-(3-Methylbenzofuran-2-yl)pyrimidin-2-amine], the 50% inhibitory concentration (IC50) in assay [1] (setting [3]) and in assay [2] (setting [4]) was less than 5 µM in each case.
For `Cc1c(-c2ccnc(N)n2)sc2ccc(CNC(=O)c3ccc(C=O)cc3)cc12` [Example 130, Cc1c(sc2ccc(CNC(═O)c3ccc(C═O)cc3)cc12)-c4ccnc(N)n4], the concentration for half-maximal inhibition (IC50) in assay [1] (setting [3]) and in assay [2] (setting [4]) was less than 5 µM each time.
Turning to `Cc1c(-c2ccnc(N)n2)sc2ccc(CNC(=O)Cc3cccc(O)c3)cc12` [Example 140, Cc1c(sc2ccc(CNC(═O)Cc3cccc(O)c3)cc12)-c4ccnc(N)n4], the IC50 was less than 5 µM in assay [1] (setting [3]) and more than 5 µM in assay [2] (setting [4]).
The corresponding values for `Cc1c(-c2ccnc(N)n2)sc2ccc(CNC(=O)c3ccc(Cl)cc3O)cc12` [Example 190, Cc1c(sc2ccc(CNC(═O)c3ccc(Cl)cc3O)cc12)-c4ccnc(N)n4] are less than 5 µM and less than 5 µM.
Taken in the same sequence, the figures for `Cc1c(-c2ccncc2)sc2ccc(Cl)cc12` [Example 4, 4-(5-Chloro-3-methylbenzo[b]thiophen-2-yl)pyridine] were more than 5 µM and more than 5 µM.
Turning to `Cc1c(-c2ccnc(N)n2)sc2ccc(C(=O)N3CCC(N)C3)cc12` (stereo not shown) [Example 23, (2-(2-Aminopyrimidin-4-yl)-3-methylbenzo[b]thiophen-5-yl)(3-aminopyrrolidin-1-yl)methanone], the concentration for half-maximal inhibition (IC50) in assay [1] (setting [3]) and in assay [2] (setting [4]) was less than 5 µM each time.
With `Cc1c(-c2ccnc(N)n2)sc2ccc(CNC(=O)CC(C)CC(C)(C)C)cc12` (stereo not shown) [Example 158, CC(CC(═O)NCc1ccc2sc(c(C)c2c1)-c3ccnc(N)n3)CC(C)(C)C], the IC50 in assay [1] (setting [3]) and in assay [2] (setting [4]) was more than 5 µM in each case.
`Cc1c(-c2ccnc(N)n2)sc2ccc(CNC(=O)C(Cc3ccc(O)cc3)NC(=O)OC(C)(C)C)cc12` (stereo not shown) [Example 328, Cc1c(sc2ccc(CNC(═O)C(Cc3ccc(O)cc3)NC(═O)OC(C)(C)C)cc12)c4ccnc(N)n4]: the IC50 in assay [1] (setting [3]) and in assay [2] (setting [4]) was less than 5 µM each time.
For the compound `CC(=O)c1ccccc1C(=O)NCc1ccc2sc(-c3ccnc(N)n3)c(C)c2c1` [Example 165, CC(═O)c1ccccc1C(═O)NCc2ccc3sc(c(C)c3c2)-c4ccnc(N)n4], the half-inhibitory concentration (IC50) is less than 5 µM in assay [1] (setting [3]) and more than 5 µM in assay [2] (setting [4]).
The corresponding values for `Cc1c(-c2ccnc(N)n2)sc2ccc(C(=O)O)cc12` [Example 19, 2-(2-Aminopyrimidin-4-yl)-3-methylbenzo[b]thiophene-5-carboxylic acid] are more than 5 µM and less than 5 µM.
Taken in the same sequence, the figures for `COc1ccccc1C=CC(=O)NCc1ccc2sc(-c3ccnc(N)n3)c(C)c2c1` [Example 200, COc1ccccc1C═CC(═O)NCc2ccc3sc(c(C)c3c2)-c4ccnc(N)n4] were less than 5 µM and less than 5 µM.
Taken in the same sequence, the figures for `COC(=O)c1ccc(C(=O)NCc2ccc3sc(-c4ccnc(N)n4)c(C)c3c2)cc1` [Example 209, COC(═O)c1ccc(cc1)C(═O)NCc2ccc3sc(c(C)c3c2)-c4ccnc(N)n4] were less than 5 µM and less than 5 µM.
